Results: ChEMBL document CHEMBL3232858, “Antiangiogenic activity of hypoxylonol C” (J Nat Prod, 2014)
The source made the active and inactive calls.

Key:
Conditions in all cases: Homo sapiens
HUVEC [1] = test: Antiangiogenic activity in HUVEC assessed as inhibition of VEGF-induced tube formation after 11 days; assay type: functional, cell-based
HUVEC [2] = test: Antiangiogenic activity in HUVEC assessed as reduction of VEGF-induced CDK1 mRNA level at 20 uM after 24 hrs by RT-PCR analysis; assay type: functional, cell-based
HUVEC [3] = test: Antiangiogenic activity in HUVEC assessed as reduction of VEGF-induced cyclins A2 and B1 mRNA level at 20 uM after 24 hrs by RT-PCR analysis; assay type: functional, cell-based
HUVEC [4] = test: Antiangiogenic activity in HUVEC assessed as reduction of VEGF-induced vascular endothelial cadherin mRNA level at 20 uM after 24 hrs by RT-PCR analysis; assay type: functional, cell-based
HUVEC [5] = test: Antiangiogenic activity in HUVEC assessed as reduction of VEGF-induced tube length at 1 to 20 uM after 11 days; assay type: functional, cell-based
HUVEC [6] = test: Antiangiogenic activity in HUVEC assessed as inhibition of VEGF-induced cell migration after 22 hrs
HUVEC [7] = test: Antiangiogenic activity in HUVEC assessed as inhibition of VEGF-induced tube formation at 1 to 20 uM after 11 days; assay type: functional, cell-based
HUVEC [8] = test: Antiangiogenic activity in HUVEC assessed as inhibition of VEGF-induced cell migration at 1 to 20 uM after 22 hrs
HUVEC [9] = test: Antiangiogenic activity in HUVEC assessed as reduction of VEGF-induced integrins alpha3 and beta1 mRNA level at 20 uM after 24 hrs by RT-PCR analysis; assay type: functional, cell-based

O=C1C[C@H]2C(=C3c4c2ccc(O)c4[C@@H](O)C[C@@H]3O)c2cccc(O)c21
active: inhibition (HUVEC [1]) Dose-dependent effect | Activity (HUVEC [2]) | Activity (HUVEC [3]) | Activity (HUVEC [4]) | inhibition (HUVEC [5]) | inhibition (HUVEC [6]) Dose-dependent effect | inhibition (HUVEC [7]) | inhibition (HUVEC [8]) | Activity (HUVEC [9])
